The source made the active and inactive calls. Cut-off read from the data, not from the text of the source: actives have a measured IC50 and inactives only a lower limit.

In the assay the target is Envelope glycoprotein gp160 (Human immunodeficiency virus 1, UniProt Q6QLK5). Nature of the assay: inhibitors of HIV fusion peptide binding, primary screen, biochemical, uHTS, fluorescence dequenching (AID 1986).
Chain of Envelope glycoprotein gp160 (Q6QLK5 whole entry, the tested form may be a part): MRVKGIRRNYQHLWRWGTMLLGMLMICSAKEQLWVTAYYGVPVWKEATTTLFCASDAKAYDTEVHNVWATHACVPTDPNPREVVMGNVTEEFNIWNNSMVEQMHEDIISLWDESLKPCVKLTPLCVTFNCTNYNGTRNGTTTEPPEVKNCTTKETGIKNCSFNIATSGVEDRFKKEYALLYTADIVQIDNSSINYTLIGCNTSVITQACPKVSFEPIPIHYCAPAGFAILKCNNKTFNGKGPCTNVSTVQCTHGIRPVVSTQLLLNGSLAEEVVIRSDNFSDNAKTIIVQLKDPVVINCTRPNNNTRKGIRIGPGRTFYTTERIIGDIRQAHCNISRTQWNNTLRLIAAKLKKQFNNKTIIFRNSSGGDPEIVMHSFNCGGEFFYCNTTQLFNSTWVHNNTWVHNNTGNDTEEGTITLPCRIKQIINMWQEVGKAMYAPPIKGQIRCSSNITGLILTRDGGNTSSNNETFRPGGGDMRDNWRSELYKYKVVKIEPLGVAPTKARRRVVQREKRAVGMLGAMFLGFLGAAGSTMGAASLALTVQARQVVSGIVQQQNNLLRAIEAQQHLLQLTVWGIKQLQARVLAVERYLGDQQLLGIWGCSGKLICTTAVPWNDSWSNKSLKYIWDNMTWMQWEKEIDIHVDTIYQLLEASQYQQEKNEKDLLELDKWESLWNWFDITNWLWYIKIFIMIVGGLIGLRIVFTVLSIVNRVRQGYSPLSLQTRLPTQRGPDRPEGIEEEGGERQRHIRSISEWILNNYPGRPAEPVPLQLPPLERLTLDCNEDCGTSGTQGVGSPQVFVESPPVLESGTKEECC
As a reminder, the IC50 is the concentration at which inhibition is half-maximal. In the case of `COc1ccc(OC)c(/C=C2\SC(=S)N(NS(=O)(=O)c3ccc(C)cc3)C2=O)c1`, the IC50 was 21.4 µM (active).
In the case of `CC1=C(C#N)C(=O)NC(=O)/C1=C\c1ccc(-c2cc(C)c(C)cc2[N+](=O)[O-])o1`, the IC50 is 21.8 µM (active).
Regarding `COc1ccc(-c2csc(NC(=O)CSc3nc(C)nc4sc(C(=O)O)c(C)c34)n2)cc1`, the IC50 was 9.37 µM (active).

Values taken from ChEMBL document CHEMBL1201862, “PubChem BioAssay data set” (2004).
